SMILES strings stand for the structures. Counter-ions that a name gives are not always drawn. Where only a bound is given, the exact number is not on record here.
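Note: radioligand displacement of a [3H]-labelled ligand from membranes of CHO cells stably expressing human H4 receptor, bound radioactivity counted on filters by liquid scintillation.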

For this assay, the target named is human H4 receptor (Homo sapiens, UniProt Q9H3N8). Put plainly: biochemical.
Sequence of human H4 receptor (Q9H3N8 whole entry): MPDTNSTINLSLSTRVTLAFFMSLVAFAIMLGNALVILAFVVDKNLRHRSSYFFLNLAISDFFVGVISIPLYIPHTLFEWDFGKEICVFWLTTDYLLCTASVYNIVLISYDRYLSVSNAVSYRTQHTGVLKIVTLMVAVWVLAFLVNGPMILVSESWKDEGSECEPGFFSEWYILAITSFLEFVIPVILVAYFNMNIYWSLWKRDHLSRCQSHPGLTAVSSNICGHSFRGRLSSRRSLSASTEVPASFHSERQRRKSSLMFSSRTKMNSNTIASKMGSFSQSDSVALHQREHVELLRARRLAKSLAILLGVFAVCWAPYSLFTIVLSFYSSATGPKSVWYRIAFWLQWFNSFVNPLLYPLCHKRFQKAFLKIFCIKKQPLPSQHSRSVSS
With `Cc1c(-c2ccc(NC(=O)OC(C)(C)C(Cl)(Cl)Cl)cc2)nc2n1CCc1ccccc1C2OC1CCN(C)CC1` (centres unmarked) [Example 175, {4-[1-methyl-4-(1-methylpiperidin-4-yloxy)-9,10-dihydro-4H-3,10a-diaza-benzo[f]azulen-2-yl]-phenyl}-carbamic acid 2,2,2-trichloro-1,1-dimethyl-ethyl ester], the inhibitory constant (Ki) (as a rule, a measure of affinity in units of concentration, obtained from inhibition or displacement) is below 30 nM.
The value for `Cc1c(-c2ccc(N3C(=O)OCC3Cc3ccccc3)cc2)nc2n1CCc1ccccc1C2OC1CCN(C)CC1` (centres unmarked) [Example 176, 4-benzyl-3-{4-[1-methyl-4-(1-methylpiperidin-4-yloxy)-9,10-dihydro-4H-3,10a-diaza-benzo[f]azulen-2-yl]-phenyl}-oxazolidin-2-one] was below 30 nM.
For the compound `Cc1c(-c2ccc(C3CCN(C(=O)OC(C)(C)C)CC3)cc2)nc2n1CCc1ccccc1C2OC1CCN(C)CC1` (centres unmarked) [Example 177, 4-{4-[1-methyl-4-(1-methylpiperidin-4-yloxy)-9,10-dihydro-4H-3,10a-diaza-benzo[f]azulen-2-yl]-phenyl}-piperidine-1-carboxylic acid tert-butyl ester], the Ki is below 30 nM.
The result for `Cc1c(-c2ccc(N3CCN(C(C)C)C3=O)cc2)nc2n1CCc1ccccc1C2OC1CCN(C)CC1` (centres unmarked) [Example 178, 1-isopropyl-3-{4-[1-methyl-4-(1-methylpiperidin-4-yloxy)-9,10-dihydro-4H-3,10a-diaza-benzo[f]azulen-2-yl]-phenyl}-imidazolidin-2-one] reads below 30 nM; that for `CN1CCC(OC2c3ccccc3CCn3cc(-c4ccccc4CO)nc32)CC1` (centres unmarked) [Example 179, {2-[4-(1-methylpiperidin-4-yloxy)-9,10-dihydro-4H-3,10a-diaza-benzo[f]azulen-2-yl]-phenyl}-methanol oxalate], below 300 nM.
The compound `CN(C)CCOc1ccc(-c2cn3c(n2)C(OC2CCN(C)CC2)c2ccccc2CC3)cc1` (centres unmarked) [Example 180, dimethyl-(2-{4-[4-(1-methylpiperidin-4-yloxy)-9,10-dihydro-4H-3,10a-diaza-benzo[f]azulen-2-yl]-phenoxy}-ethyl)-amine] registered a Ki below 300 nM.
For the compound `CN1CCC(OC2c3ccccc3CCn3cc(-c4ccc(CN5CCOC5=O)cc4)nc32)CC1` (centres unmarked) [Example 181, 3-{4-[4-(1-methylpiperidin-4-yloxy)-9,10-dihydro-4H-3,10a-diaza-benzo[f]azulen-2-yl]-benzyl}-oxazolidin-2-one], the Ki was below 300 nM.
In turn, `CN1CCC(OC2c3ccccc3CCn3cc(-c4ccc(CN(C)C(=O)OC(C)(C)C)cc4)nc32)CC1` (centres unmarked) [Example 182, methyl-{4-[4-(1-methylpiperidin-4-yloxy)-9,10-dihydro-4H-3,10a-diaza-benzo[f]azulen-2-yl]benzyl}-carbamic acid tert-butyl ester] displayed a Ki below 300 nM.
On to `C=CCOc1ccc(-c2cn3c(n2)C(OC2CCN(C)CC2)c2ccccc2CC3)cc1` (centres unmarked) [Example 183, 2-(4-allyloxyphenyl)-4-(1-methylpiperidin-4-yloxy)-9,10-dihydro-4H-3,10a-diaza-benzo[f]azulene], for which the inhibitory constant (Ki) was below 30 nM.
Take `CN1CCC(OC2c3ccccc3CCn3cc(-c4ccc(CN5CCCC5=O)cc4)nc32)CC1` (centres unmarked) [Example 184, 1-{4-[4-(1-methylpiperidin-4-yloxy)-9,10-dihydro-4H-3,10a-diaza-benzo[f]azulen-2-yl]benzyl}-pyrrolidin-2-one]: the Ki is below 1000 nM.
Compound `CN1CCC(OC2c3ccccc3CCn3cc(-c4ccc(CN5CCCCC5=O)cc4)nc32)CC1` (centres unmarked) [Example 185, 1-{4-[4-(1-methylpiperidin-4-yloxy)-9,10-dihydro-4H-3,10a-diaza-benzo[f]azulen-2-yl]benzyl}-piperidin-2-one] showed a Ki below 300 nM.
Regarding `CC(C)SCc1ccc(-c2cn3c(n2)C(OC2CCN(C)CC2)c2ccccc2CC3)cc1` (centres unmarked) [Example 186, 2-(4-isopropylsulfanylmethylphenyl)-4-(1-methylpiperidin-4-yloxy)-9,10-dihydro-4H-3,10a-diaza-benzo[f]azulene], the Ki was below 300 nM.
`CN1CCC(OC2c3ccccc3CCn3cc(-c4ccc(CCSC(C)(C)C)cc4)nc32)CC1` (centres unmarked) [Example 189, 2-[4-(2-tert-butylsulfanylethyl)-phenyl]-4-(1-methylpiperidin-4-yloxy)-9,10-dihydro-4H-3,10a-diaza-benzo[f]azulene] displayed a Ki below 300 nM.
Consider `CN1CCC(OC2c3ccccc3CCn3cc(-c4ccccc4[N+](=O)[O-])nc32)CC1` (centres unmarked) [Example 190, 4-(1-methylpiperidin-4-yloxy)-2-(2-nitrophenyl)-9,10-dihydro-4H-3,10a-diaza-benzo[f]azulene], for which the Ki is below 300 nM.
The value for `CN1CCC(OC2c3ccccc3CCn3cc(-c4ccc(CN5CCN(C(C)(C)C)C5=O)cc4)nc32)CC1` (centres unmarked) [Example 191, 1-tertbutyl-3-{4-[4-(1-methylpiperidin-4-yloxy)-9,10-dihydro-4H-3,10a-diaza-benzo[f]azulen-2-yl]benzyl}-imidazolidin-2-one] was below 300 nM; that for `CN1CCC(OC2c3ccccc3CCn3cc(-c4ccc(CCO)cc4)nc32)CC1` (centres unmarked) [Example 192, 2-{4-[4-(1-methylpiperidin-4-yloxy)-9,10-dihydro-4H-3,10a-diaza-benzo[f]azulen-2-yl]-phenyl}-ethanol] was below 300 nM.
On to `CN1CCC(OC2c3ccccc3CCn3cc(-c4ccc(OCC5CC5)cc4)nc32)CC1` (centres unmarked) [Example 193, 2-(4-cyclopropylmethoxyphenyl)-4-(1-methylpiperidin-4-yloxy)-9,10-dihydro-4H-3,10a-diaza-benzo[f]azulene], for which the Ki is below 300 nM.
The compound `CN1CCC(OC2c3ccccc3CCn3cc(-c4ccc(CCNC(=O)OC(C)(C)C)cc4)nc32)CC1` (centres unmarked) [Example 196] yielded a Ki below 300 nM.
`CN1CCC(OC2c3ccccc3CCn3cc(-c4ccc(CCN(C)C(=O)OC(C)(C)C)cc4)nc32)CC1` (centres unmarked) [Example 197, methyl-(2-{4-[4-(1-methylpiperidin-4-yloxy)-9,10-dihydro-4H-3,10a-diaza-benzo[f]azulen-2-yl]-phenyl}-ethyl)-carbamic acid tert-butyl ester] displayed a Ki below 30 nM.
Compound `CN1CCC(OC2c3ccccc3CCn3cc(-c4ccc(CN5C(=O)OC(C)(C)C5=O)cc4)nc32)CC1` (centres unmarked) [Example 198, 5,5-dimethyl-3-{4-[4-(1-methylpiperidin-4-yloxy)-9,10-dihydro-4H-3,10a-diaza-benzo[f]azulen-2-yl]benzyl}-oxazolidine-2,4-dione] displayed a Ki below 300 nM.
The result for `CN1CCC(OC2c3ccccc3CCn3cc(-c4ccc(CSCCNC(=O)OC(C)(C)C)cc4)nc32)CC1` (centres unmarked) [Example 199, (2-{4-[4-(1-methylpiperidin-4-yloxy)-9,10-dihydro-4H-3,10a-diaza-benzo[f]azulen-2-yl]benzylsulfanyl}-ethyl)-carbamic acid tert-butyl ester] reads below 300 nM.
Take `CN1CCC(OC2c3ccccc3CCn3cc(-c4ccc(CCOC(=O)NC(C)(C)C)cc4)nc32)CC1` (centres unmarked) [Example 200, tert-butyl-carbamic acid 2-{4-[4-(1-methylpiperidin-4-yloxy)-9,10-dihydro-4H-3,10a-diaza-benzo[f]azulen-2-yl]-phenyl}-ethyl ester]: the Ki is below 300 nM.
Consider `CN1CCC(OC2c3ccccc3CCn3cc(C(C)(C)c4ccccc4)nc32)CC1` (centres unmarked) [Example 207, 2-(1-methyl-1-phenyl-ethyl)-4-(1-methylpiperidin-4-yloxy)-9,10-dihydro-4H-3,10a-diaza-benzo[f]azulene], for which the Ki is below 1000 nM.

Source of the values: patent publication US9255101B2 (BIOPROJECT, priority 2012, dated 2016).
